Patent US11040029B2, “Methods for the administration of certain VMAT2 inhibitors” (Neurocrine Biosciences, Inc., priority 2017, dated 2021)
“Also recorded” adds a separate entry of the source. Where two headings read alike, the source gives them in different places.

Columns and labels:
[1] = system: more than 80 targets (GPCRs, cell-surface monoamine transporters, ion channels including HERG); assay: Cerep multi-target activity screen; type: binding; details: broad panel screen
[2] = molecular target: T1, human VMAT1 transporter (Homo sapiens, UniProt P54219); assay: Uptake in cells expressing VMAT1; type: cell-based; details: concentrations up to 10 μM
T1 construct: expressed in transfected cells
T1 sequence (P54219 1-525): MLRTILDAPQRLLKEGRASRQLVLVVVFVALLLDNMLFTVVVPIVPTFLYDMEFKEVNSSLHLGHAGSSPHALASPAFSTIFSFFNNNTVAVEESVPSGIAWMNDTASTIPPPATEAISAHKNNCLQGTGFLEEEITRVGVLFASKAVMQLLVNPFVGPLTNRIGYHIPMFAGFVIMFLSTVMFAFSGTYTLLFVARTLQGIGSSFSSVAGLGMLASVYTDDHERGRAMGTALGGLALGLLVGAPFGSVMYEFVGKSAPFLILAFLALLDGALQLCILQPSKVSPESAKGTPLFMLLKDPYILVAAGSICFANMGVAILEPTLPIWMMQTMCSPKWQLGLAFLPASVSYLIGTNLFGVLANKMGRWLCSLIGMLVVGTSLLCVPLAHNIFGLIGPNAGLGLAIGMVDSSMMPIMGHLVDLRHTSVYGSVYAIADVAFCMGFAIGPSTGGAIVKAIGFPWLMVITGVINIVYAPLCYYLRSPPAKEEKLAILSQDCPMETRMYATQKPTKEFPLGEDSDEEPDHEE

[3] = Phase 3 clinical trial in tardive dyskinesia, plasma concentrations; type: in vivo, human; details: valbenazine 40 or 80 mg once daily, Weeks 2, 4, 6
Protocol: A Phase 3 clinical trial for patients with tardive dyskinesia (TD) and a psychiatric diagnosis (i.e., schizophrenia/schizoaffective disorder, mood disorder) who received once-daily valbenazine 40 or 80 mg for 6 weeks was also conducted.
Plasma samples for determination of plasma valbenazine and [+]-α-HTBZ concentrations were obtained at Weeks 2, 4, and 6. Plasma valbenazine and [+]-α-HTBZ concentrations were determined using validated HPLC-MS/MS methods. PK parameters were determined using standard non-compartmental methods. Dose-normalized plasma concentrations of valbenazine and [+]-α-HTBZ at Weeks 2, 4, and 6 in the subgroup of patients prescribed concomitant potent CYP2D6 inhibitors (paroxetine, fluoxetine, duloxetine, sertraline, or bupropion) were compared by t-test to respective concentrations in patients not receiving a CYP2D6 inhibitor.

[4] = in vivo; cited from earlier work
[5] = system: CYP2D6; details: both, human, microsomes, 1 μM, pH 7.4
Protocol: (§1) Incubation volumes were 250 μL for liver microsomes and 100 μL for hepatocytes. The liver microsomal incubation mixtures contained potassium phosphate buffer (50 mM, pH 7.4) with an NADPH-generating system which consisted of NADP (1 mM), glucose-6-phosphate (5 mM), MgCl2 (3 mM), EDTA (1 mM) and glucose-6-phosphate dehydrogenase (1 Unit/mL) at the final concentrations indicated. The hepatocyte incubation was in KHB buffer. Cryopreserved human hepatocytes were thawed according to the supplier's instruction, and pooled from three female donors. […] Aliquots of supernatant fractions were analyzed by an LC/MS/MS method using an Acquity UPLC liquid chromatography system with an Acquity BEH C18, 1.7 μm (2.1×100 mm) column and the MassLynx 4.1 with QuanLynx data acquisition and processing software, each available from Waters Corp., Milford, Mass.
(§2) Dextromethorphan was used as a positive control. Briefly, the concentration-time data were fitted by nonlinear regression with the following equation: Ct/C0=e^−kt where Ct is the substrate concentration at time t and C0 is the initial concentration (1 μM) at time 0. In the calculations, the area ratio of the substrate peak to an internal standard peak is proportional to the analyte concentration and used for regression analysis to get the value of k. Then the in vivo intrinsic clearance (CLint) can be predicted using the equations below with an assumption that C0 is much lower than Km, a constant that is equal to the substrate concentration at which an enzyme reaction proceeds at half the maximum velocity.

[6] = in vitro; details: both, human, microsomes, pH 7.4
Protocol: as §1, §2

[7] = system: CYP2D6; assay: in vitro; details: both, human, microsomes, pH 7.4
Protocol: as §1, §2

[8] = in vitro; details: female, human, hepatocytes
Protocol: as §1, §2

[9] = system: CYP2D6; assay: in vitro; details: female, human, hepatocytes
Protocol: as §1, §2

[10] = system: dopamine, serotonin and adrenergic receptor subtypes; assay: Detailed radioligand binding assays, monoamine receptors; details: for interaction with D1 and D2 receptors: radioligand binding assays and broad panel screen
[11] = system: CYP2D6, CYP1A1, CYP1A2, CYP1B1, CYP3A4 and CYP3A5; details: 1 μM, pH 7.4
[12] = Plasma concentrations of circulating metabolites of VBZ; type: in vivo; details: after VBZ
[13] = Healthy volunteer studies, coadministration of NBI-98854 with strong CYP2D6 inhibitors; type: in vivo, human; details: NBI-98854 coadministered with strong CYP2D6 inhibitors; preliminary data
[14] = system: CYP2D6; details: female, human, hepatocytes, 1 μM
Protocol: as §1, §2

[15] = Metabolic stability in human liver microsomes with/without quinidine; details: both, human, microsomes, pH 7.4
Protocol: as §1, §2

[16] = system: CYP2D6; assay: as above
Protocol: as §1, §2

[17] = Metabolic stability in cryopreserved human hepatocytes with/without quinidine; details: female, human, hepatocytes
Protocol: as §1, §2

[18] = system: CYP2D6; assay: as above
Protocol: as §1, §2

[19] = Prolactin release, in vivo surrogate measure
[20] = with concomitant CYP2D6 inhibitors
[21] = without concomitant CYP2D6 inhibitors

With `COc1cc2c(cc1OC)[C@H]1C[C@@H](OC(=O)[C@@H](N)C(C)C)[C@H](CC(C)C)CN1CC2` [Valbenazine, (S)-2-amino-3-methyl-butyric acid (2R,3R,11bR)-3-isobutyl-9,10-dimethoxy-1,3,4,6,7,11b-hexahydro-2H-pyrido[2,1-a]isoquinolin-2-yl ester] the “affinity for more than 80 binding sites” value [1] was “little to no affinity”, the “inhibition of uptake through VMAT1” value ([2]; listed as VBZ) was “no significant inhibitory activity; also recorded: no significant effect” and the “Mean (±SD) dose-normalized plasma concentration” value [3, 20] was 3.375 ± 2.037 ng/mL/mg. For the same compound, the “Mean (±SD) dose-normalized plasma concentration” value [3, 21] was 3.683 ± 2.360 ng/mL/mg.

For α-dihydrotetrabenazine, the “increase of AUC” value [4] is listed as about 3 fold and the “increase of Cmax” value [4] is listed as “approximately 30%”.

In the case of `COc1cc2c(cc1OC)[C@H]1C[C@@H](O)[C@H](CC(C)C)CN1CC2` [R,R,R-DHTBZ, (2R,3R,11bR)-3-isobutyl-9,10-dimethoxy-1,3,4,6,7,11b-hexahydro-2H-pyrido[2,1-a]isoquinolin-2-ol], the “% Contribution by CYP2D6” value [5] is reported as 62.6%, the CLint scaled at 1 μM [6] is reported as 10.4 mL/min/kg and the CLint scaled at 1 μM [7] is reported as 3.9 mL/min/kg. The “affinity for more than 80 binding sites” value [1] was “little to no affinity”, the CLint scaled at 1 μM [8] was 8.8 mL/min/kg and the CLint scaled at 1 μM [9] was 4 mL/min/kg. For the same compound, the “specificity for VMAT2 versus monoamine receptor subtypes” value [10] was “high specificity”, the “enzymes catalyzing oxidative metabolism in human liver” value [11] was “in part catalyzed by CYP2D6, with some contribution from CYP1A1, CYP1A2, CYP1B1, CYP3A4 and CYP3A5” and the “decline of plasma concentrations, half-life” value [12] was “half-lives similar to VBZ”. The “inhibition of uptake through VMAT1” value [2] was “no significant inhibitory activity; also recorded: no significant effect”, the “increase of area under the plasma concentration versus time curve (AUC)” value [13] was “approximately 2 fold” and the “increase of maximum plasma concentration (Cmax)” value [13] was “approximately 2 fold”. The “% Contribution by CYP2D6” value [14] was 54.3%, the “Mean (±SD) dose-normalized plasma concentration” value [3, 20] was 0.534 ± 0.321 ng/mL/mg and the “Mean (±SD) dose-normalized plasma concentration” value [3, 21] was 0.513 ± 0.326 ng/mL/mg.

With `COc1cc2c(cc1OC)[C@H]1C[C@@H](OC(=O)[C@@H](N)C(C)(C)O)[C@H](CC(C)C)CN1CC2` [NBI-136110] the “affinity for more than 80 binding sites” value [1] was “little to no affinity”, the “decline of plasma concentrations, half-life” value [12] was “half-lives similar to VBZ” and the “inhibition of uptake through VMAT1” value [2] was “no significant inhibitory activity; also recorded: no significant effect”.

In the case of `COc1ccc2c(c1)[C@]13CCCC[C@@H]1[C@H](C2)N(C)CC3` [Dextromethorphan], the CLint scaled at 1 μM [15] is reported as 50 mL/min/kg, the CLint scaled at 1 μM ([16]; both, human, microsomes, pH 7.4) is reported as 8 mL/min/kg and the “% Contribution by CYP2D6” value ([16]; human liver microsomes) is reported as 84.0%. For the same compound, the “inhibition of intrinsic clearance in the presence of quinidine” value ([16]; quinidine 3 μM, text summary for microsomes and hepatocytes) was “more than 80%”, the CLint scaled at 1 μM [17] was 22.6 mL/min/kg and the CLint scaled at 1 μM ([18]; female, human, hepatocytes) was 3.23 mL/min/kg. For the same compound, the “% Contribution by CYP2D6” value ([18]; human hepatocytes) was 85.8%.

For `COC(=O)[C@H]1[C@H]2C[C@@H]3c4[nH]c5cc(OC)ccc5c4CCN3C[C@H]2C[C@@H](OC(=O)c2cc(OC)c(OC)c(OC)c2)[C@@H]1OC` [reserpine, reference compound], the “inhibition of uptake through VMAT1” value [2] was “substantially inhibited uptake through VMAT1”.

In the case of `COc1cc2c(cc1OC)[C@@H]1C[C@H](O)[C@@H](CC(C)C)CN1CC2` [S,S,S-DHTBZ], the “interaction with D1 and D2 receptors” value [10] is reported as “interact with D1 and D2 receptors”.

In the case of `COc1cc2c(cc1OC)[C@@H]1C[C@@H](O)[C@@H](CC(C)C)CN1CC2` [R,S,S-DHTBZ], the “interaction with D1 and D2 receptors” value [10] is reported as “interact with D1 and D2 receptors”.

With `COc1cc2c(cc1OC)C1CC(=O)C(CC(C)C)CN1CC2` (stereo not drawn) [TBZ, tetrabenazine, reference compound] the “inhibition of uptake through VMAT1” value [2] was “no significant inhibitory activity; also recorded: no significant effect” and the “increase in serum prolactin levels” value [19] was “increase in serum prolactin levels”.
